# From patent publication US20250136581A1, “SUBSTITUTED TRIAZOLE DERIVATIVE, PREPARATION METHOD THEREFOR, PHARMACEUTICAL COMPOSITION THEREOF, AND USE THEREOF” (SHANGHAI SIMR BIOTECHNOLOGY CO., LTD., priority 2021, published 2025)
# pKi: −log10 of the molar value.
# Biological target: α5-GABAA receptor (α5, β3, γ2 subunits) (Homo sapiens (Human), UniProt P18507+P31644)
# Assay: Whole cell patch clamp, inverse agonist efficacy in HEK293 cells expressing α5-GABAA receptor
# Format: cell-based
# Conditions: HEK293, drug 100 nM, GABA 0.05 μM, −60 mV; read-out: Compound inverse agonist efficacy %
# From the text: The inventors used electrophysiological methods to determine the inverse agonist efficacy of the drugs to be tested on the α5-GABAA receptor. The detailed methods are as follows:
# Different subunits of the GABAA receptor were co-expressed in the HEK293 cell line to construct a fully functional GABAA receptor. The α, β, and γ subunits are essential to form a complete functional GABAA receptor. In this example, the present disclosure had established the following cell model: α5 subunit (see GenBank Accession No.: NM_000810.3 for protein sequences), β3 subunit (see GenBank Accession No.: NM_000814.5 for protein sequences), and γ2 subunit (see GenBank Accession No.: NM_000816.3 for protein sequences) were co-expressed in the HEK293 cell line, followed by screening the monoclonal stably transfected cell line. This cell line expressed a fully functional α5-GABAA receptor.
# The monoclonal stably transfected HEK293 cell line expressing α5-GABAA receptor were cultured in 10 cm culture dishes and passaged when the cells grew to 80% to 90% confluent. During passaging, the culture medium was aspirated first, then 3 mL of DPBS phosphate buffer salt (Gibco™) was added to the culture dishes, and the culture dishes were shaken slightly, and DPBS was aspirated. 1 mL of trypsin (TrypLE Express, Gibco™) was added thereto, and the cells were digested at 37° C. for 1-2 minutes. Then 3 mL of complete medium (DMEM+10% FBS (Gibco™)) was added and the cells at the bottom of the culture dishes were dispersed. The cell suspension was transferred to a 15 mL centrifugal tube (Corning) and then centrifuged at 200 g for 3 minutes. The supernatant was discarded, 4 mL of complete medium was added, and the cells were gently blown and resuspended for use. If cell passaging was performed, the cell suspension was diluted at a ratio of 1:5 or 1:10. If cells for electrophysiological detection were prepared, the cell suspension was diluted in a ratio of 1:12, then added into a 24-well dish (Corning™) in which glass slides were placed and pretreated with Poly-D-Lysine, and the experiment was carried out after the cells adhered to the wall. The cells used for electrophysiology was cultured no more than 48 hours.
# Drug concentration setting: The final drug concentration used in drug screening was 100 nM, and the GABA concentration was 0.05 μM. The whole cell patch clamp technique was used in electrophysiological assays, which could refer to the literature (I. Lecker, Y. Yin, D. S. Wang and B. A. Orser, British Journal of Anaesthesia, 2013, 110 (Si), i73-i81). The compositions of the extracellular solution for electrophysiology assay were as follows: 150 mM NaCl, 5 mM KCl, 2.5 mM CaCl2, 1 mM MgCl2, 10 mM HEPES, and 10 mM glucose (pH 7.4); the formulation of the electrode internal fluid for electrophysiology use was as follows: 140 mM CsCl, 11 mM EGTA, 10 mM HEPES, 2 mM CaCl2, 1 mM MgCl2, 4 mM MgATP, and 2 mM TEA (pH 7.3). The signal acquisition used an EPC-10 amplifier and the PatchMaster software (HEKA) or Axon700B amplifier and Clampex software (AXON). The recording electrode was pulled from borosilicate glass, and the electrode resistance was 4 to 6 MQ. The ALA-VC-8PG™ system was used for drug application. Single cell that grew independently was selected for recording. During recording, the cell membrane potential was clamped at −60 mV. During experiment, an extracellular solution was applied outside the cells for about 20 seconds. When the baseline reached to a stable state, the extracellular solution was switched to the GABA solution to induce an inward current. After about 20 to 40 seconds until the current was stable, the solution was switched to a corresponding drug solution to detect the effect of the drug. At last, the solution was switched to the extracellular solution, and the experiment was terminated when the baseline returned to the level before drug application. […]
row,inhibition at 0.1 µM,Compound
1,49.7%,"Cc1nnn(-c2ccc(C(F)F)cc2)c1COc1ccc(N2CC(=O)N3CCN(Cc4ncccn4)CC3C2)nn1 (stereo not shown) [Example 92, 2-(6-((1-(4-(Difluoromethyl)phenyl)-4-methyl-1H-1,2,3-triazol-5-yl)methoxy)pyridazin-3-yl)-8-(pyrimidin-2-ylmethyl)octahydro-4H-pyrazino[1,2-a]pyrazin-4-one]"
2,50.1%,"Cc1nnn(-c2ccc(C(F)F)cc2)c1COc1ccc(N2CCN(CCN)C(=O)C2)nn1 [Example 67, 1-(2-Aminoethyl)-4-(6-((1-(4-(difluoromethyl)phenyl)-4-methyl-1H-1,2,3-triazol-5-yl)methoxy)pyridazin-3-yl)piperazin-2-one]"

# Biological target: human α5β3γ2 receptors (α5-GABAA receptor) (Homo sapiens (Human), UniProt P18507+P31644)
# Assay: 3H-flunitrazepam competition binding, human α5β3γ2 GABAA receptor
# Conditions: HEK293 cell membranes, 1 nM 3H-flunitrazepam; read-out: α5-GABAAR Ki
# Procedure, shortened: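 HEK293 membranes stably expressing each human receptor subtype ([…]) competed against 1 nM 3H-flunitrazepam in Tris buffer, 1 h at room temperature; flumazenil defined the low-signal control. Eight-point 4-fold test-compound dilutions; GF/C filtration and scintillation counting gave IC50 by curve fitting, converted to Ki.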
row,pKi,Compound
1,8.96,"Cc1nnn(-c2ccc(C(F)F)cc2)c1COc1ccc(N2CC(=O)N3CCN(Cc4ncccn4)CC3C2)nn1 (stereo not shown) [Example 92, 2-(6-((1-(4-(Difluoromethyl)phenyl)-4-methyl-1H-1,2,3-triazol-5-yl)methoxy)pyridazin-3-yl)-8-(pyrimidin-2-ylmethyl)octahydro-4H-pyrazino[1,2-a]pyrazin-4-one]"
2,9.31,"Cc1nnn(-c2ccc(C(F)F)cc2)c1COc1nnc(N2CCNC(=O)C2)c2ncccc12 [Example 137, 4-(5-((1-(4-(Difluoromethyl)phenyl)-4-methyl-1H-1,2,3-triazol-5-yl)methoxy)pyrido[2,3-d]pyridazin-8-yl)piperazin-2-one]"
3,9.02,"O=C1CN(c2ccc(OCc3c(C(F)F)nnn3-c3ccc(C(F)F)cc3)nn2)CCN1 [Example 185, 4-(6-((4-(Difluoromethyl)-1-(4-(difluoromethyl)phenyl)-1H-1,2,3-triazol-5-yl)methoxy)pyridazin-3-yl)piperazin-2-one]"
4,9.15,"O=C1CN(c2ccc(OCc3c(Cl)nnn3-c3ccc(C(F)F)cc3)nn2)C[C@@H]2COCCN12 [Example 182, (R)-8-(6-((4-Chloro-1-(4-(difluoromethyl)phenyl)-1H-1,2,3-triazol-5-yl)methoxy)pyridazin-3-yl)hexahydropyrazino[2,1-c][1,4]oxazin-6(1H)-one]"
5,9.34,"Cc1nnn(-c2ccc(Cl)cn2)c1COc1ccc(N2CCNC(=O)C2)nn1 [Example 72, 4-(6-((1-(5-Chloropyridin-2-yl)-4-methyl-1H-1,2,3-triazol-5-yl)methoxy)pyridazin-3-yl)piperazin-2-one]"
6,8.85,"COCCCN1CCN(c2ccc(OCc3c(C)nnn3-c3ccc(C(F)F)cc3)nn2)CC1=O [Example 140, 4-(6-((1-(4-(Difluoromethyl)phenyl)-4-methyl-1H-1,2,3-triazol-5-yl)methoxy)pyridazin-3-yl)-1-(3-methoxypropyl)piperazin-2-one]"
7,7.84,"Cc1nnn(-c2ccc(C(F)F)cc2)c1COc1ccc(N2CCNC(C)(C)C2=O)nn1 [Example 10, 1-(6-((1-(4-(Difluoromethyl)phenyl)-4-methyl-1H-1,2,3-triazol-5-yl)methoxy)pyridazin-3-yl)-3,3-dimethylpiperazin-2-one]"
8,8.91,"Cc1nnn(-c2ccc(C(F)F)cc2)c1COc1ccc(N2CCOC3(CCS(=O)(=O)C3)C2)nn1 (stereo not shown) [Example 105, 9-(6-((1-(4-(Difluoromethyl)phenyl)-4-methyl-1H-1,2,3-triazol-5-yl)methoxy)pyridazin-3-yl)-6-oxa-2-thia-9-azaspiro[4.5]decane 2,2-dioxide]"
9,8.70,"COC1CCN(c2ccc(OCc3c(C)nnn3-c3ccc(C(F)F)cc3)nn2)C1 (stereo not shown) [Example 1, 3-((1-(4-(Difluoromethyl)phenyl)-4-methyl-1H-1,2,3-triazol-5-yl)methoxy)-6-(3-methoxypyrrolidin-1-yl)pyridazine]"
10,8.84,"Cc1nnn(-c2ccc(C(F)F)cc2)c1COc1ccc(N2CCN3C(=O)COC[C@@H]3C2)nn1 [Example 9, (S)-8-(6-((1-(4-(Difluoromethyl)phenyl)-4-methyl-1H-1,2,3-triazol-5-yl)methoxy)pyridazin-3-yl)hexahydropyrazino[2,1-c][1,4]oxazin-4(3H)-one]"
11,8.83,"CCNC(=O)CC1CN(c2ccc(OCc3c(C)nnn3-c3ccc(C(F)F)cc3)nn2)CCO1 (stereo not shown) [Example 63, 2-(4-(6-((1-(4-(Difluoromethyl)phenyl)-4-methyl-1H-1,2,3-triazol-5-yl)methoxy)pyridazin-3-yl)morpholin-2-yl)-N-ethylacetamide]"
12,8.53,"Cc1nnn(-c2ccc(C(F)F)cc2)c1COc1ccc(N2CCN[C@H](C(N)=O)C2)nn1 [Example 32, (S)-4-(6-((1-(4-(Difluoromethyl)phenyl)-4-methyl-1H-1,2,3-triazol-5-yl)methoxy)pyridazin-3-yl)piperazine-2-amide]"
13,8.86,"Cc1nnn(-c2ccc(C(F)F)cc2)c1COc1ccc(N2CC(=O)N3CCOC[C@@H]3C2)nn1 [Example 174, (S)-8-(6-((1-(4-(Difluoromethyl)phenyl)-4-methyl-1H-1,2,3-triazol-5-yl)methoxy)pyridazin-3-yl)hexahydropyrazino[2,1-c][1,4]oxazin-6(1H)-one]"
14,9.17,"CCNC(=O)C1=CCCN(c2ccc(OCc3c(C)nnn3-c3ccc(C(F)F)cc3)nn2)C1 [Example 172, 1-(6-((1-(4-(Difluoromethyl)phenyl)-4-methyl-1H-1,2,3-triazol-5-yl)methoxy)pyridazin-3-yl)-N-ethyl-1,2,5,6-tetrahydropyridine-3-carboxamide]"
15,8.93,"Cc1nnn(-c2ccc(C(F)F)cc2)c1COc1ccc(N2CCN(c3cnn(C(F)F)c3)C(=O)C2)nn1 [Example 113, 1-(1-(Difluoromethyl)-1H-pyrazol-4-yl)-4-(6-((1-(4-(difluoromethyl)phenyl)-4-methyl-1H-1,2,3-triazol-5-yl)methoxy)pyridazin-3-yl)piperazin-2-one]"
16,7.35,"Cc1nnn(-c2ccc(F)cc2)c1COc1ccc(N2CCN(CC(F)(F)F)C(=O)C2)nn1 [Example 94, 4-(6-((1-(4-Fluorophenyl)-4-methyl-1H-1,2,3-triazol-5-yl)methoxy)pyridazin-3-yl)-1-(2,2,2-trifluoroethyl)piperazin-2-one]"
17,8.95,"Cc1nnn(-c2ccc(C(F)F)cc2)c1COc1ccc(N2CC(=O)N3CCN(CC(F)(F)F)CC3C2)nn1 (stereo not shown) [Example 91, 2-(6-((1-(4-(Difluoromethyl)phenyl)-4-methyl-1H-1,2,3-triazol-5-yl)methoxy)pyridazin-3-yl)-8-(2,2,2-trifluoroethyl)octahydro-4H-pyrazino[1,2-a]pyrazin-4-one]"
18,7.61,"Cc1nnn(-c2ccc(C(F)F)cc2)c1COc1ccc(N2C(=O)NC(C)(C)C2=O)nn1 [Example 25, 3-(6-((1-(4-(Difluoromethyl)phenyl)-4-methyl-1H-1,2,3-triazol-5-yl)methoxy)pyridazin-3-yl)-5,5-dimethylimidazolidine-2,4-dione]"
19,8.90,"Cc1nnn(-c2ccc(C(F)F)cc2)c1COc1ccc(N2CC(=O)N3C[C@@H]4C[C@]3(CO4)C2)nn1 [Example 177, (3S,9aR)-8-(6-((1-(4-(Difluoromethyl)phenyl)-4-methyl-1H-1,2,3-triazol-5-yl)methoxy)pyridazin-3-yl)tetrahydro-1H-3,9a-methanopyrazino[2,1-c][1,4]oxazin-6(7H)-one]"
20,9.25,"Cc1cc(N2CCNC(=O)C2)nnc1OCc1c(C)nnn1-c1ccc(C(F)F)cc1 [Example 81, 4-(6-((1-(4-(Difluoromethyl)phenyl)-4-methyl-1H-1,2,3-triazol-5-yl)methoxy)-5-methylpyridazin-3-yl)piperazin-2-one]"
